Data published in patent US9738634B2, “Heterocyclic amide compound and herbicide” (SYNGENTA PARTICIPATIONS AG, priority 2013, dated 2017).

What was measured:
Assay type in all cases: in vivo
[1] = system: barnyard grass; assay: Test Example 1: weedkilling efficacy, preemergent weed treatment in the submerged state; A: barnyard grass; conditions: treatment dosage 320 g/ha
In short: (§1)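 Emulsion diluted with water to the specified per-hectare dosage is applied onto flood water (4 cm) over alluvial soil on the sowing day, with barnyard grass, bulrush and pondweed seeded and rice (2.5-leaf) transplanted; plants grow at 25–30 °C and are rated at 3 weeks.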

[2] = system: bulrush; assay: Test Example 1: weedkilling efficacy, preemergent weed treatment in the submerged state; B: bulrush; conditions: treatment dosage 320 g/ha
In short: as §1

[3] = system: oval-leafed pondweed; assay: Test Example 1: weedkilling efficacy, preemergent weed treatment in the submerged state; C: oval-leafed pondweed; conditions: treatment dosage 320 g/ha
In short: as §1

[4] = system: transplanted rice; assay: Test Example 1: preemergent weed treatment in the submerged state, effect on crop; a: transplanted rice; conditions: treatment dosage 320 g/ha
In short: as §1

[5] = system: barnyard grass; assay: Test Example 2: weedkilling efficacy, growth period weed treatment in the submerged state; A: barnyard grass; conditions: treatment dosage 320 g/ha
In short: (§2)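 First, alluvial soil in pots is flooded to 4 cm and mixed seed is sown. Next, plants grow in a greenhouse at 25 to 30° C until the 1-2 leaf stage. Then diluted emulsion is applied onto the water surface at the given g/ha rate, and injury is assessed after 3 weeks.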

[6] = system: bulrush; assay: Test Example 2: weedkilling efficacy, growth period weed treatment in the submerged state; B: bulrush; conditions: treatment dosage 320 g/ha
In short: as §2

[7] = system: oval-leafed pondweed; assay: Test Example 2: weedkilling efficacy, growth period weed treatment in the submerged state; C: oval-leafed pondweed; conditions: treatment dosage 320 g/ha
In short: as §2

[8] = system: crabgrass; assay: Test Example 3: weedkilling efficacy through soil treatment; D: crabgrass; conditions: soil treatment, treatment dosage 320 g/ha
In short: (§3)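 Crop and weed responses were judged three weeks after a uniform surface spray of the water-diluted emulsion at the given g/ha rate. Seeds sat beneath about 1.5 cm of sterilized diluvial soil, and boxes stood in a greenhouse at 25 to 30° C.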

[9] = system: green foxtail; assay: Test Example 3: weedkilling efficacy through soil treatment; E: green foxtail; conditions: soil treatment, treatment dosage 320 g/ha
In short: as §3

[10] = system: barnyard grass; assay: Test Example 3: weedkilling efficacy through soil treatment; F: barnyard grass; conditions: soil treatment, treatment dosage 320 g/ha
In short: as §3

[11] = system: wild oat; assay: Test Example 3: weedkilling efficacy through soil treatment; G: wild oat; conditions: soil treatment, treatment dosage 320 g/ha
In short: as §3

[12] = system: black-grass; assay: Test Example 3: weedkilling efficacy through soil treatment; H: black-grass; conditions: soil treatment, treatment dosage 320 g/ha
In short: as §3

[13] = system: Italian ryegrass; assay: Test Example 3: weedkilling efficacy through soil treatment; I: Italian ryegrass; conditions: soil treatment, treatment dosage 320 g/ha
In short: as §3

[14] = system: common wind-grass; assay: Test Example 3: weedkilling efficacy through soil treatment; J: common wind-grass; conditions: soil treatment, treatment dosage 320 g/ha
In short: as §3

[15] = system: Indian mallow; assay: Test Example 3: weedkilling efficacy through soil treatment; K: Indian mallow; conditions: soil treatment, treatment dosage 320 g/ha
In short: as §3

[16] = system: redroot pigweed; assay: Test Example 3: weedkilling efficacy through soil treatment; L: redroot pigweed; conditions: soil treatment, treatment dosage 320 g/ha
In short: as §3

[17] = system: fig-leafed goosefoot; assay: Test Example 3: weedkilling efficacy through soil treatment; M: fig-leafed goosefoot; conditions: soil treatment, treatment dosage 320 g/ha
In short: as §3

[18] = system: chickweed; assay: Test Example 3: weedkilling efficacy through soil treatment; N: chickweed; conditions: soil treatment, treatment dosage 320 g/ha
In short: as §3

[19] = system: catchweed; assay: Test Example 3: weedkilling efficacy through soil treatment; O: catchweed; conditions: soil treatment, treatment dosage 320 g/ha
In short: as §3

[20] = system: birds-eye speedwell; assay: Test Example 3: weedkilling efficacy through soil treatment; p: birds-eye speedwell; conditions: soil treatment, treatment dosage 320 g/ha
In short: as §3

[21] = system: directly sown rice; assay: Test Example 3: soil treatment, effect on crop; b: directly sown rice; conditions: soil treatment, treatment dosage 320 g/ha
In short: as §3

[22] = system: corn; assay: Test Example 3: soil treatment, effect on crop; c: corn; conditions: soil treatment, treatment dosage 320 g/ha
In short: as §3

[23] = system: soybean; assay: Test Example 3: soil treatment, effect on crop; d: soybean; conditions: soil treatment, treatment dosage 320 g/ha
In short: as §3

[24] = system: wheat; assay: Test Example 3: soil treatment, effect on crop; e: wheat; conditions: soil treatment, treatment dosage 320 g/ha
In short: as §3

[25] = system: beet; assay: Test Example 3: soil treatment, effect on crop; f: beet; conditions: soil treatment, treatment dosage 320 g/ha
In short: as §3

[26] = system: rapeseed; assay: Test Example 3: soil treatment, effect on crop; g: rapeseed; conditions: soil treatment, treatment dosage 320 g/ha
In short: as §3

SMILES | A: barnyard grass, weed kill grade [1] | B: bulrush, weed kill grade [2] | C: oval-leafed pondweed, weed kill grade [3] | a: transplanted rice, effect on crop grade [4] | A (barnyard grass) weedkilling efficacy grade [5] | B (bulrush) weedkilling efficacy grade [6] | C (oval-leafed pondweed) weedkilling efficacy grade [7] | E: green foxtail, weedkilling efficacy grade [9] | F: barnyard grass, weedkilling efficacy grade [10] | G: wild oat, weedkilling efficacy grade [11] | H: black-grass, weedkilling efficacy grade [12] | I: Italian ryegrass, weedkilling efficacy grade [13] | J: common wind-grass, weedkilling efficacy grade [14] | K: Indian mallow, weedkilling efficacy grade [15] | L: redroot pigweed, weedkilling efficacy grade [16] | M: fig-leafed goosefoot, weedkilling efficacy grade [17] | N: chickweed, weedkilling efficacy grade [18] | O: catchweed, weedkilling efficacy grade [19] | P: birds-eye speedwell, weedkilling efficacy grade [20] | b: directly sown rice, effect on crop grade [21] | other results
CC(C)(C(=O)Nc1ccn(C(F)F)n1)N1COCN(c2ccccc2)C1=O [A-1-04] | 5 (weed kill ratio 90% or more, (practically complete withering)) | 5 (weed kill ratio 90% or more, (practically complete withering)) | 4 (weed kill ratio 70% or more, less than 90%) | 0 (weed kill ratio 5% or less (practically no effect)) | 3 (weed kill ratio 40% or more, less than 70%) | 4 (weed kill ratio 70% or more, less than 90%) | 4 (weed kill ratio 70% or more, less than 90%) | 3 (weed kill ratio 40% or more, less than 70%) | 2 (weed kill ratio 20% or more, less than 40%) | 2 (weed kill ratio 20% or more, less than 40%) | 4 (weed kill ratio 70% or more, less than 90%) | 5 (weed kill ratio 90% or more, (practically complete withering)) | 5 (weed kill ratio 90% or more, (practically complete withering)) | 0 (weed kill ratio 5% or less (practically no effect)) | 0 (weed kill ratio 5% or less (practically no effect)) | 3 (weed kill ratio 40% or more, less than 70%) | 4 (weed kill ratio 70% or more, less than 90%) | 2 (weed kill ratio 20% or more, less than 40%) | 3 (weed kill ratio 40% or more, less than 70%) | 0 (weed kill ratio 5% or less (practically no effect)) | D: crabgrass, weedkilling efficacy grade [8]: 3 (weed kill ratio 40% or more, less than 70%); c: corn, effect on crop grade [22]: 0 (weed kill ratio 5% or less (practically no effect)); d: soybean, effect on crop grade [23]: 2 (weed kill ratio 20% or more, less than 40%); e: wheat, effect on crop grade [24]: 0 (weed kill ratio 5% or less (practically no effect)); f: beet, effect on crop grade [25]: 3 (weed kill ratio 40% or more, less than 70%); g: rapeseed, effect on crop grade [26]: 4 (weed kill ratio 70% or more, less than 90%)
CC(C)(C(=O)Nc1nncs1)N1COCN(c2ccccc2)C1=O [A-1-12] | 5 (weed kill ratio 90% or more, (practically complete withering)) | 5 (weed kill ratio 90% or more, (practically complete withering)) | 4 (weed kill ratio 70% or more, less than 90%) | 0 (weed kill ratio 5% or less (practically no effect)) | 1 (weed kill ratio 5% or more, less than 20%) | 5 (weed kill ratio 90% or more, (practically complete withering)) | 3 (weed kill ratio 40% or more, less than 70%) | 5 (weed kill ratio 90% or more, (practically complete withering)) | 3 (weed kill ratio 40% or more, less than 70%) | 3 (weed kill ratio 40% or more, less than 70%) | 5 (weed kill ratio 90% or more, (practically complete withering)) | 5 (weed kill ratio 90% or more, (practically complete withering)) | 5 (weed kill ratio 90% or more, (practically complete withering)) | 0 (weed kill ratio 5% or less (practically no effect)) | 0 (weed kill ratio 5% or less (practically no effect)) | 4 (weed kill ratio 70% or more, less than 90%) | 3 (weed kill ratio 40% or more, less than 70%) | 0 (weed kill ratio 5% or less (practically no effect)) | 3 (weed kill ratio 40% or more, less than 70%) | 5 (weed kill ratio 90% or more, (practically complete withering)) | c: corn, effect on crop grade [22]: 0 (weed kill ratio 5% or less (practically no effect)); d: soybean, effect on crop grade [23]: 4 (weed kill ratio 70% or more, less than 90%); e: wheat, effect on crop grade [24]: 0 (weed kill ratio 5% or less (practically no effect)); f: beet, effect on crop grade [25]: 2 (weed kill ratio 20% or more, less than 40%); g: rapeseed, effect on crop grade [26]: 0 (weed kill ratio 5% or less (practically no effect))
